This note sets out measurements from patent US20170190705A1, “Compositions and Methods for Inhibiting BMP” (THE BRIGHAM AND WOMAN'S HOSPITAL, INC., priority 2014, published 2017).

Each structure is given as a SMILES string.

Holding throughout (type): biochemical
In one experiment the target is IGF1R (Homo sapiens, UniProt P08069). Description: Kinome profiling IGF1R. The note with it: read-out: Inhibitory activity IGF1R; for inhibition at 0.1 µM: 100 nM. As to the method:
(§1) . The kinome-wide selectivity was determined following the methods previously reported by Mohedas et al., ACS Chem Biol 2013, 8, 1291-1302 and Sanvitale et al., PLoS One 2013, 8, e62721.

A further experiment concerns the target T1, IKK-ε (Homo sapiens, UniProt Q14164).
T1 sequence (Q14164 1-716): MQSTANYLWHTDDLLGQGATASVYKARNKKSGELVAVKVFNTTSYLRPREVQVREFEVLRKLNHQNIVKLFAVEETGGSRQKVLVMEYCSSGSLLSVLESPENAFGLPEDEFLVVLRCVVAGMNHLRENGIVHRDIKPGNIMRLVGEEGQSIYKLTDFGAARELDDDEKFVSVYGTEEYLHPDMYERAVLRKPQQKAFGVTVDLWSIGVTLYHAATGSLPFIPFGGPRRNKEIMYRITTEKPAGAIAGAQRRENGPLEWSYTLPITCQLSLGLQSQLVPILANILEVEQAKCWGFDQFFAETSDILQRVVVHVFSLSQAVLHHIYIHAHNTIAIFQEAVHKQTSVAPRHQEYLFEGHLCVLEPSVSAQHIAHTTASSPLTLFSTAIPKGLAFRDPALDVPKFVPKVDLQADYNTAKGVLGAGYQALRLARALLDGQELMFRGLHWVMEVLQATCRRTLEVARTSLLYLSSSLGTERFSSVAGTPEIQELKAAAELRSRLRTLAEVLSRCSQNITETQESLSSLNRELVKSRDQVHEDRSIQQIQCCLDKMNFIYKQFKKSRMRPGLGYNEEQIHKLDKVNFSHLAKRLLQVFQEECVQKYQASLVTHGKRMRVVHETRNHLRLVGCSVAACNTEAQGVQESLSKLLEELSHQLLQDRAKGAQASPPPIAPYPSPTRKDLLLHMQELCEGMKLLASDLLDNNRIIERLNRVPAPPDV
Description: Kinome profiling IKK-ε. The note with it: read-out: Inhibitory activity IKK-ε; for inhibition at 0.1 µM: 100 nM. As to the method:
as §1

The target in another experiment is PAK2 (Homo sapiens, UniProt Q13177). Description: Kinome profiling PAK2. The note with it: read-out: Inhibitory activity PAK2; for inhibition at 0.1 µM: 100 nM. As to the method:
as §1

A further experiment deals with FLT-4 (Homo sapiens, UniProt P35916). Description: Kinome profiling FLT-4. The note with it: read-out: Inhibitory activity FLT-4; for inhibition at 0.1 µM: 100 nM. As to the method:
as §1

A further experiment has as its target CK1-γ1 (Homo sapiens, UniProt Q9HCP0). Description: Kinome profiling CK1-γ1. The note with it: read-out: Inhibitory activity CK1-γ1; for inhibition at 0.1 µM: 100 nM. On the procedure: as §1
A further experiment deals with SYK (Homo sapiens, UniProt P43405). Description: Kinome profiling SYK. The note with it: read-out: Inhibitory activity SYK; for inhibition at 0.1 µM: 100 nM. As to the method:
as §1

The next experiment deals with T2, EPHA3 (Homo sapiens, UniProt P29320).
T2 sequence (P29320 21-983): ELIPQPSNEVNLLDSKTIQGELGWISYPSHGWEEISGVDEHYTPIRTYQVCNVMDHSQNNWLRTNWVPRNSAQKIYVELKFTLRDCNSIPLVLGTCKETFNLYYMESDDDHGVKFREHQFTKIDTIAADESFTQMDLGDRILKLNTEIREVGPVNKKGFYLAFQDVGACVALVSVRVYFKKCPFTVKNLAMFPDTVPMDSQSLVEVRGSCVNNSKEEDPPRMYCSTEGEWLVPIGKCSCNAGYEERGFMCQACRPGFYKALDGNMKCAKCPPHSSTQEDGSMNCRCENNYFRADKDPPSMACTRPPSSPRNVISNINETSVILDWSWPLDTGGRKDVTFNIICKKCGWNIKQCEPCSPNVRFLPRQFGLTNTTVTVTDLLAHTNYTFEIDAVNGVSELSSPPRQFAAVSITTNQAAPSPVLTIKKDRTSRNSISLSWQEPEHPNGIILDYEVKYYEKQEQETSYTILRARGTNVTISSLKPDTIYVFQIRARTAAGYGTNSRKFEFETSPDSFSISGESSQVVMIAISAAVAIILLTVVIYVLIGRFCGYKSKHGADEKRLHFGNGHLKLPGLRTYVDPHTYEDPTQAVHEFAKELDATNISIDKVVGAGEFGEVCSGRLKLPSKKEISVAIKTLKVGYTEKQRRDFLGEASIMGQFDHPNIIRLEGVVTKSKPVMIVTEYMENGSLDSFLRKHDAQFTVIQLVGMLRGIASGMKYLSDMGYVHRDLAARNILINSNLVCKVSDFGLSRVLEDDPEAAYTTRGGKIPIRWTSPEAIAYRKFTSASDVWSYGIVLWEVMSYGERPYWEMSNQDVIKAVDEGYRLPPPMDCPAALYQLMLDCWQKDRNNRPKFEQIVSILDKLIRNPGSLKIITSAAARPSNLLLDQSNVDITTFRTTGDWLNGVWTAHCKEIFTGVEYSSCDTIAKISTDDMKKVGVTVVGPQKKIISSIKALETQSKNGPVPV
Description: Kinome profiling EPHA3. The note with it: read-out: Inhibitory activity EPHA3; for inhibition at 0.1 µM: 100 nM. On the procedure: as §1

PAK2, sequence (Q13177 whole entry): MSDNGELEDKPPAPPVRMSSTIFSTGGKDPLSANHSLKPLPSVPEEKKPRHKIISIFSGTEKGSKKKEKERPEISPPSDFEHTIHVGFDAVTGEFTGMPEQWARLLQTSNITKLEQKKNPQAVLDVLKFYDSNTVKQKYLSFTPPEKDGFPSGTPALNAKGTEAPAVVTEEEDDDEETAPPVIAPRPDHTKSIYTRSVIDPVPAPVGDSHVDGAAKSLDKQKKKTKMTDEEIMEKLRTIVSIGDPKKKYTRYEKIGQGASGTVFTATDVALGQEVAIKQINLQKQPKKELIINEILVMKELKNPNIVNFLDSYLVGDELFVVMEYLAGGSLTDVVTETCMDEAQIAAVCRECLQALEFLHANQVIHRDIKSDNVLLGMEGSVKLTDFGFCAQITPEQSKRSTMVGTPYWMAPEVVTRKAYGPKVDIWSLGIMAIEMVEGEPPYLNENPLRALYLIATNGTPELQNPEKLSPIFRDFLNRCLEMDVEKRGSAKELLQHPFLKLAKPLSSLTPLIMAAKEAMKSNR
FLT-4, sequence (P35916 25-1363): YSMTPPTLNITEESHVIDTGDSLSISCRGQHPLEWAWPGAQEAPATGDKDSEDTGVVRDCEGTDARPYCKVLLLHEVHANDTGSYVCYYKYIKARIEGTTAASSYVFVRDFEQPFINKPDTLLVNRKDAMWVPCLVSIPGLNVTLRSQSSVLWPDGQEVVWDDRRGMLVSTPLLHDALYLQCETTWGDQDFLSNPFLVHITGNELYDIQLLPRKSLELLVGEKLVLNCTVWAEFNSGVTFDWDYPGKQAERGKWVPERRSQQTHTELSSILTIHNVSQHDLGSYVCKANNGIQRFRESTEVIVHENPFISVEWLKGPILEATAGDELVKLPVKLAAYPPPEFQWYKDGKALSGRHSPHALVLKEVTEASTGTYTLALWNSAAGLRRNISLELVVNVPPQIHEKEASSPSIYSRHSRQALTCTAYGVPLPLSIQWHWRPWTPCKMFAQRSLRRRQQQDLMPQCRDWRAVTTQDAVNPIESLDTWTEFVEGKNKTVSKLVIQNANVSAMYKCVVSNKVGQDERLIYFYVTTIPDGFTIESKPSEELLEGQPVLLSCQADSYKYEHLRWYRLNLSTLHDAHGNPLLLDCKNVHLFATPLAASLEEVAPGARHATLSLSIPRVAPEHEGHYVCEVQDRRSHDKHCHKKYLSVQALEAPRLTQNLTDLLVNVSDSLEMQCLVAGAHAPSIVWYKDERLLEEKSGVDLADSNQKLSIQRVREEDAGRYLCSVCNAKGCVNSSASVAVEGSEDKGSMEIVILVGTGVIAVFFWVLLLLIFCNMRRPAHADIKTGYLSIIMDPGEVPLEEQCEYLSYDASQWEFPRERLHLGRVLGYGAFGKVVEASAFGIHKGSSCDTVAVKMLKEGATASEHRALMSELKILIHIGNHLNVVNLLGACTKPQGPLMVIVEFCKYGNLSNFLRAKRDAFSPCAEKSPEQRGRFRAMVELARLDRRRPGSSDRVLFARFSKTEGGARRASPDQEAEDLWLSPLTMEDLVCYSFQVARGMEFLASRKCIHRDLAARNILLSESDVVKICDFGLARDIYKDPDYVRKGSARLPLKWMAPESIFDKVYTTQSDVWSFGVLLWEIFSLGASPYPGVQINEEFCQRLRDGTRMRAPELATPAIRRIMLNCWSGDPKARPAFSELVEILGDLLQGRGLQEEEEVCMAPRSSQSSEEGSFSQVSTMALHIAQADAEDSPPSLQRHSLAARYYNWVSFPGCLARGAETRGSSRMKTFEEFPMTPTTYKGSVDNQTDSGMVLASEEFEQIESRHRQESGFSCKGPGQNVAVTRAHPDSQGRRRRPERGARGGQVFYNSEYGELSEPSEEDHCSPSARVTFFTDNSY
CK1-γ1, sequence (Q9HCP0 whole entry): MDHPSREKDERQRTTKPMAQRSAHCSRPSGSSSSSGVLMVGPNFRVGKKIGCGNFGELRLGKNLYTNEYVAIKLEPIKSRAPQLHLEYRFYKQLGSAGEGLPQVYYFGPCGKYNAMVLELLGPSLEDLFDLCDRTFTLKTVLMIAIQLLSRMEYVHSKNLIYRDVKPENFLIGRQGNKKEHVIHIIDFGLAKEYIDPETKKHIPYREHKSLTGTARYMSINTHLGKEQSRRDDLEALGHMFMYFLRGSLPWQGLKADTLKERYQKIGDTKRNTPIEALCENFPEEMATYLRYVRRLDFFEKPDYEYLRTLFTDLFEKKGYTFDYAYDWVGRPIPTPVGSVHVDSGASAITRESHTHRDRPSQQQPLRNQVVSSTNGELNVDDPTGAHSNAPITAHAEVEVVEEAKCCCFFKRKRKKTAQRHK
IGF1R, sequence (P08069 31-1367): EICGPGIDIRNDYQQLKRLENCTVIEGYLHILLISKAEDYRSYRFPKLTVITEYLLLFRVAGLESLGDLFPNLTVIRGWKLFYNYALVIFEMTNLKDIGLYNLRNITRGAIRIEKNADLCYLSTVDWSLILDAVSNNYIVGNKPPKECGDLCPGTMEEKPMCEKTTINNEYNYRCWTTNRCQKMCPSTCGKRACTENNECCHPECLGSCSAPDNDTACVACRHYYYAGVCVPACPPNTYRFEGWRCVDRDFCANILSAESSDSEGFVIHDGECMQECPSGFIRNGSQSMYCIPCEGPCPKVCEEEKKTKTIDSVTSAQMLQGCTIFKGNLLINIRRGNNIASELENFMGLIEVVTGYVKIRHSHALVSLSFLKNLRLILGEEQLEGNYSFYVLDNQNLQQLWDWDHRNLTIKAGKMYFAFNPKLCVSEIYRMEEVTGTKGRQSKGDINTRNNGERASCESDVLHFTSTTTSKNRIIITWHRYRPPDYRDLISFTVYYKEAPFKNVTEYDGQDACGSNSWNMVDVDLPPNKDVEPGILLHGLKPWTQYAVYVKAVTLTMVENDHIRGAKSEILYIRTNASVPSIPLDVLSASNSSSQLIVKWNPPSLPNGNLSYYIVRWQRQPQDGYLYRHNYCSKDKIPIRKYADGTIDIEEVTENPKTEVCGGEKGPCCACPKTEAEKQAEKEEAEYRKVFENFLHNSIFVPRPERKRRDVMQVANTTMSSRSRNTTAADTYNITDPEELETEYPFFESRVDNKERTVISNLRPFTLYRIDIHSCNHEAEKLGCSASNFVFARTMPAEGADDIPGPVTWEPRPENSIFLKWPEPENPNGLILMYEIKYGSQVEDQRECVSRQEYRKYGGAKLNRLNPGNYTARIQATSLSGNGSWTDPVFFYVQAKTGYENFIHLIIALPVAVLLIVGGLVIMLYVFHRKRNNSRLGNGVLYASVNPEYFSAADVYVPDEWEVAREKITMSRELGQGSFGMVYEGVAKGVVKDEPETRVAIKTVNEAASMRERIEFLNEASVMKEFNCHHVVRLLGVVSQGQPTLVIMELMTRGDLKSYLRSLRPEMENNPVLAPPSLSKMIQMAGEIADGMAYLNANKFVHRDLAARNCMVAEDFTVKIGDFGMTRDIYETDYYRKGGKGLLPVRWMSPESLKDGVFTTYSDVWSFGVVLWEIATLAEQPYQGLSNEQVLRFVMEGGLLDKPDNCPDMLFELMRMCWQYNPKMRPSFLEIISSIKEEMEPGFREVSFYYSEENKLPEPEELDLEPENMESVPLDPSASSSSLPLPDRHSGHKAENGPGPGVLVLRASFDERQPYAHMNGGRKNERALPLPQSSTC

As to `COc1cc(-c2cc(-c3ccc(N4CCNCC4)cc3)cnc2N)cc(OC)c1OC` [Compound 15, 5-(4-(piperazin-1-yl)phenyl)-3-(3,4,5-trimethoxyphenyl)pyridin-2-amine], the inhibition at 0.1 µM at IGF1R stood at 2%; on IKK-ε, 1%; at PAK2 it was 0%; at FLT-4, 1%; on CK1-γ1, 4%; on SYK, 1%. In addition, at EPHA3, the inhibition at 0.1 µM was determined as 8%. Besides, the inhibition at 1 µM on IGF1R is 4%; at IKK-ε it was 20%; at PAK2 it was 1%; at FLT-4, 4%; at CK1-γ1, 17%; at SYK it was -4%. For the same molecule, on EPHA3, the inhibition at 1 µM stood at 31%.

As for `COc1cc(-c2cc(-c3ccc(N4CCNCC4)cc3)cnc2C)cc(OC)c1OC` [Compound 10, 1-(4-(6-methyl-5-(3,4,5-trimethoxyphenyl)pyridin-3-yl)phenyl)piperazine], the inhibition at 0.1 µM at IGF1R turned out to be 0%; on IKK-ε, 2%; at PAK2, 0%; on FLT-4, 3%; on CK1-γ1, 1%; at SYK, 0%. In addition, at EPHA3, the inhibition at 0.1 µM came to 2%. Besides, the inhibition at 1 µM is 0% on IGF1R; 2% on IKK-ε; 1% at PAK2; 9% at FLT-4; 6% on CK1-γ1; -1% at SYK. Besides, at EPHA3, the inhibition at 1 µM turned out to be 3%.
